We go through 7 molecules from patent publication US20100144675A1, “Regulation of sGC Function by Corrin Derivatives” (priority 2007, published 2010).

For test [1], the target named is T1, recombinant human α1/β1 sGC (Homo sapiens, UniProt Q02108+Q02153).
T1 construct: made in house
T1 sequence (Q02108 1-690): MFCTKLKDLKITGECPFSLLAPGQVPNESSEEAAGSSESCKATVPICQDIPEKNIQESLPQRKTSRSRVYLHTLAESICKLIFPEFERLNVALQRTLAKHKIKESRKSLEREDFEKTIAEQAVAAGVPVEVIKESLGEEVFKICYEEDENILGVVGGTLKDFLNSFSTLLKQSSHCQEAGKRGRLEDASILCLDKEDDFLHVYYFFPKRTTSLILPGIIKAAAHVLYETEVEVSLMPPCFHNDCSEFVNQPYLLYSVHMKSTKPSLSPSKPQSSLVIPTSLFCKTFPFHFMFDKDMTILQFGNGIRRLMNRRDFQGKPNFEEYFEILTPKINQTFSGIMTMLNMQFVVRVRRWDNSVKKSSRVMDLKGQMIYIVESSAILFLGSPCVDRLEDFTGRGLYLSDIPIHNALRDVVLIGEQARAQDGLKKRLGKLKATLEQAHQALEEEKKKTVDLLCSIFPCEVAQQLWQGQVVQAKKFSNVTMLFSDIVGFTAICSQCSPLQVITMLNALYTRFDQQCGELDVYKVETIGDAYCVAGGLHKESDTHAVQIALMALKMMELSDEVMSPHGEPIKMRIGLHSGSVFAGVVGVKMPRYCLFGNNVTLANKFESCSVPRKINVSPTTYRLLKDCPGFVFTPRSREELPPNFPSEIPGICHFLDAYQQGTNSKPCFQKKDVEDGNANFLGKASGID
T1 sequence (Q02153 1-619): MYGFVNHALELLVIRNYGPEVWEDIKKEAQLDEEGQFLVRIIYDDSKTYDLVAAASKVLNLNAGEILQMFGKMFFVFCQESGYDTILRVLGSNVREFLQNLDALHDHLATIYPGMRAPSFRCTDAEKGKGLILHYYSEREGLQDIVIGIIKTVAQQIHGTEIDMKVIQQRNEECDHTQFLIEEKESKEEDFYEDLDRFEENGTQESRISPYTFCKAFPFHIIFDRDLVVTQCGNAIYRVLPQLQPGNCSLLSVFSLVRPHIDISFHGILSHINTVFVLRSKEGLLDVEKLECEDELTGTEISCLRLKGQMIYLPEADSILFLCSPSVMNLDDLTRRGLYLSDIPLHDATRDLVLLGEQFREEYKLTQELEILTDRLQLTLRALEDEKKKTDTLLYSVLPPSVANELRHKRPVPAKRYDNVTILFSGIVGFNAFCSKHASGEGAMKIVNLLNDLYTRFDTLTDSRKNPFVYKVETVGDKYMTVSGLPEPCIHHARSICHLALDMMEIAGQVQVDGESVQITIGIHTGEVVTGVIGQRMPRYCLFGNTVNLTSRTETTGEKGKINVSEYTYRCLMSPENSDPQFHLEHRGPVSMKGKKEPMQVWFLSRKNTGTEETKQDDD
Put plainly: cGMP production by purified recombinant sGC (activation by tetrapyrroles). Type of test: biochemical. Particulars: for shift of EC50 of sGC activation in the combination: FIG. 4D/4E; for concentration at which sGC activation is maximal (dose response): dose response of corrins, FIG. 4C. The method, then:
FIG. 4. Effect of tetrapyrroles on sGC activity in vitro. A. cGMP production by recombinant human α1/β1 sGC induced by 50 μM factor B, bilirubin, nitrite ionophore 1, uroporphyrin I, or protoporphyrin IX. B. cGMP production by recombinant human α1/β1 sGC induced by 50 μM factor B, bilirubin, nitrite ionophore 1, uroporphyrin I, or protoporphyrin IX alone or in the presence of 1 μM BAY41-2272 or HMR1766. C. cGMP production by recombinant al (31 sGC in response to increasing concentration of protoporphyrin, factor B, vitamin B12 and vitamin B12a. D. cGMP production by recombinant human al/131 sGC induced by various doses of factor B at various doses of BAY41-2272. E. cGMP production by recombinant human α1/β1 sGC induced by various doses of factor B at various doses of BAY41-2272.
Activation of purified sGC by various tetrapyrroles. […] Methods of recombinant expression and purification of human α1/β11 isoform of sGC have been developed^23, 24. Measurements of enzymatic activity and multiple spectral studies performed using this recombinant enzyme^10, 23, 25 indicate that these recombinant preparations have identical properties as the native enzyme. We tested a series of tetrapyrrole compounds (FIG. 3), which are structurally related to PPIX. Similar to PPIX, majority of the tested tetrapyrroles contain four pyrrole rings connected to form a microcycle. In the case of billirubin, however, the microcycle is interrupted. […] We then compared fB with vitamin B12 (cyanocobalamine) or its derivative B12a (aquacobalamine) and PPIX, all at 50 μM. […] HMR1766 was kindly provided by Sanofi-Avantis (see a letter attached).

Test [2] deals with anesthetized rats. Nature of the test: Blood pressure (MAP) and cardiac output in instrumented anesthetized rats. Type of test: in vivo, Sprague Dawley rats. Particulars: for change in blood pressure after bolus: 500 μl bolus into abdominal aorta, fB at 5 and 15 mg/ml or 100 μg/kg BAY41-2272; for change in cardiac output after bolus: 500 μl bolus, data not shown. The method, then: FIG. 6. Effect of factor B and BAY41-2272 on mean arterial pressure (MAP) in instrumented anesthetized rats. Indicated amount of drugs were delivered as a 500 μl bolus through a catheter into the abdominal aorta and MAP were recorded as described in section D1.2. “Contr”—500 μl of saline,
Effect of factor B and BAY41-2272 on blood pressure of anesthetized rats. We also measured the effect of bolus application of fB on changes in hemodynamic parameters in anesthetized rats. Sprague Dawley rats were surgically implanted with a 10-MHz pulsed Doppler flow and a displacement probe around the ascending aorta and sutured to the left ventricular wall, respectively. A Tygon catheter was placed into the abdominal aorta via the femoral artery. After recovery the animals were anesthetized with halothane, intubated, and ventilated under isothermic conditions. Changes in systolic, diastolic, mean arterial pressures and cardiac output were recorded and processed with a multichannel-pulsed Doppler flow/dimension system and digitized (A/D converter). Before experimental treatments with fB and/or BAY41-2272 the animals were treated with a bolus of 30 μg/kg of sodium nitroprusside to confirm the integrity of the catheter and delivery system and the responsiveness of animals to drugs. After the baseline was established a 500 μl bolus of fB at 5 and 15 mg/ml or 100 μg/kg of BAY41-2272 (Alexis, San Diego, Calif., USA) was delivered and the changes in blood pressure (FIG. 6A). and cardiac output were recorded (data not shown).

In test [3] the test system is sGC. The settings on record: cited from earlier work.
Test [4] relates to rat aortic rings. Nature of the test: Relaxation of phenylephrine-preconstricted isolated rat aortic rings. Type of test: cell-based, Sprague Dawley rats. Particulars: for vascular relaxation of preconstricted aortic rings: 1 μM phenylephrine preconstriction, cumulative addition. The method, then: FIG. 5. Synergistic effect of corrin derivatives and BAY41-2272 on relaxation of rat aortic rings. The measurements were performed in the presence of corrin derivatives±BAY41-2272 as described in the text. Data are average of two aortic rings per each dose-response curve. Arrow indicates the shift in the effective dose and increased response.
FB-dependent relaxation of isolated rat aorta. In addition to in vitro analysis of sGC activity, we tested whether fB and vitamin B12 derivatives will induce relaxation of preconstricted rat aortic rings. The descending thoracic aorta was excised from freshly sacrificed Sprague Dawley rats, cleaned of adherent tissue and cut into 3-4 mm rings. Each ring was suspended between two wires hooks and mounted under 1 mN of passive tension in 4 ml organ chambers filled with Krebs' solution at 37° C., pH 7.4 and continuously aerated with 95% O2/5% CO2. The changes in isometric tension were measured by a force transducer (Grass Instruments, USA) connected to a PowerLab 400™ data-acquisition system (ADInstruments, Colorado Springs, Mass., USA). Ring preparations were equilibrated for 1 h before the start of the experiments. After the equilibration period, rings were preconstricted with 1 μM phenylephrine and maximal contractile response is determined. After maximal constriction the agonists (vitamin B12, methyl-B12, fB, BAY41-2272) were added cumulatively and changes in isometric tension determined. […] In the presence of a low dose of BAY41-2272 (0.1 μM) EC50 of fB decreased while the response increased.

The test system of test [5] is rat aortic rings. Put plainly: cGMP levels in treated rat aortic rings. The settings on record: 5 minutes incubation, 37° C., in combination with BAY 41-2272. It is filed as cell-based. The method, then: FIG. 7. Changes in cGMP levels in rat aortic rings. Aortic rings were incubated with saline or saline with factor B in the presence or absence of BAY 41-2272 for 5 minutes at 37° C. cGMP was extracted and quantified.
Changes in cGMP levels in isolated rat aorta treated with factor B and BAY 41-2272. In order to confirm that relaxation of blood vessels and decreased blood pressure in response to factor B is dependent on sGC activity we measured cGMP levels in treated aortic rings.

[6] abbreviates: combination of BAY41-2272 and fB.
[7] abbreviates: in the presence of 0.1 μM BAY41-2272.
Setting [8] is: fB together with 100 μg/kg BAY41-2272, FIG. 6B.

Take `Nc1nc(-c2nn(Cc3ccccc3F)c3ncccc23)nc(N)c1N1CCOCC1` [BAY41-2272, reference compound]: the “shift of EC50 of sGC activation in the combination” value in test [1] (setting [6]) is on record as “shifted the EC50 to lower concentrations”. For the same molecule, in test [2] (100 μg/kg BAY41-2272 alone), the MAP after administration entry is “stabilize their MAP at lower values” and the “time lower MAP is maintained” value was “at least 30 minutes”. Further, in test [2], the “change in blood pressure after bolus” value is on record as “Transient decreased in blood pressure” and the “change in cardiac output after bolus” value is on record as “increased cardiac output”.

Regarding `[C-]#[O+]` [CO, carbon monoxide], in test [3] (low-output state), the “cGMP produced compared to the resting enzyme” value is 3-4 time.

With `[N]=O` [NO, nitric oxide], the “increase in rate of cGMP production” value in test [3] (high-output state) was over 100 fold.

Take `C/C1=C2/[N-]C([C@H](CC(N)=O)[C@@]2(C)CCC(=O)NCC(C)O)[C@]2(C)N=C(/C(C)=C3N=C(/C=C4N=C1[C@@H](CCC(N)=O)C\4(C)C)[C@@H](CCC(N)=O)[C@]\3(C)CC(N)=O)[C@@H](CCC(N)=O)[C@]2(C)CC(N)=O.[C-]#N.[C-]#N.[Co]` (some centres unmarked) [factor B, dicyanocobinamide]: the “sGC activation in combination with HMR1766, FIG. 4B” value in test [1] (50 μM with 1 μM HMR1766) was “even more effective than PPIX/HMR1766”. Also, in test [1] (all at 50 μM), the “sGC activation compared with vitamin B12, B12a and PPIX, FIG. 4B” value is recorded as “effective activator of sGC”. Besides, in test [1] (setting [6]), the “sGC activation by the combination (synergy)” value is on record as “synergistically enhanced the enzyme” and the “shift of EC50 of sGC activation in the combination” value is given as “shifted the EC50 to lower concentrations”. In addition, in test [1], the “concentration at which sGC activation is maximal (dose response)” value (from here on “concentration”) is on record as “did not reach maximum in the tested range of concentrations”. The “sGC activation (cGMP production), FIG. 4A” value in test [1] (tetrapyrrole alone at 50 μM) is recorded as “significantly activated sGC”. In addition, the “vascular relaxation of preconstricted aortic rings” value (“vascular relaxation” below) in test [4] was “can induce vascular relaxation”. Also, in test [4] (setting [7]), the “EC50 of aortic ring relaxation” value was “decreased” and the relaxation response result is “increased”. Also, in test [2], the “change in blood pressure after bolus” value is reported as “Transient decreased in blood pressure” and the “change in cardiac output after bolus” value is “increased cardiac output”. Moreover, the “baseline to which MAP was restored, versus BAY41-2272 alone” value in test [2] (combined fB/BAY41-2272 treatment, FIG. 6B) was “even lower and more prolonged”. Further, in test [2] (setting [8]), the “amplitude of drop in blood pressure” value is recorded as “enhanced the amplitude of BAY41-2272-induced drop in blood pressure” and the “time of acutely decreased blood pressure” value is given as “significantly prolonged”. Moreover, in test [5], the “levels of cGMP in aortic rings” value was “increased”.

On to `C/C1=C2/[N-][C@H]([C@H](CC(N)=O)[C@@]2(C)CCC(=O)NC[C@H](C)OP(=O)([O-])O[C@H]2[C@@H](O)[C@@H](n3cnc4cc(C)c(C)cc43)O[C@@H]2CO)[C@]2(C)N=C(/C(C)=C3N=C(/C=C4N=C1[C@@H](CCC(N)=O)C\4(C)C)[C@@H](CCC(N)=O)[C@]\3(C)CC(N)=O)[C@@H](CCC(N)=O)[C@]2(C)CC(N)=O.[CH3-].[Co+3]` [methyl-B12, methylcobalamin, reference compound], for which the “vascular relaxation” value in test [4] is reported as “can induce vascular relaxation”.

Consider `C/C1=C2/[N-][C@H]([C@H](CC(N)=O)[C@@]2(C)CCC(=O)NC[C@@H](C)OP(=O)([O-])OC2C(O)[C@@H](n3cnc4cc(C)c(C)cc43)O[C@H]2CO)[C@]2(C)N=C(/C(C)=C3N=C(/C=C4N=C1[C@@H](CCC(N)=O)C\4(C)C)[C@@H](CCC(N)=O)[C@]\3(C)CC(N)=O)[C@@H](CCC(N)=O)[C@]2(C)CC(N)=O.O.[Co+2]` (some centres unmarked) [vitamin B12a, aquacobalamine, reference compound], for which the “concentration” value in test [1] stood at 50 µM.

“cyanocobalamin [vitamin B12, reference compound]”: in test [1], the “concentration” value was 50 µM. Further, the “vascular relaxation” value in test [4] is “can induce vascular relaxation”.
